# Laboratory results as given in patent US10168342B2, “Lipid probes and uses thereof” (THE SCRIPPS RESEARCH INSTITUTE, priority 2015, dated 2019).
# Columns and labels:
# Assay in all cases: isoTOP-ABPP mapping of AEA-DA-modified peptides in Neuro2a cells
# Format in all cases: cell-based
# [1] = target: T1, AEA-DA-modified peptides in Neuro2a cells (Mus musculus, UniProt Q80UU9); settings: probe 100 μM, 12 replicates
# T1 construct: endogenous in cells; host or cells: Neuro2a
# [2] = target: T2, AEA-DA-modified peptides in Neuro2a cells (Mus musculus, UniProt Q99JY4); settings: AEA-DA-modified peptide TRABD Q99JY4 234-253, SEQ ID NO 116; probe 100 μM, 12 replicates
# T2 construct: endogenous in cells; host or cells: Neuro2a
# [3] = target: T3, AEA-DA-modified peptides in Neuro2a cells (Mus musculus, UniProt Q9QUM9); settings: AEA-DA-modified peptide PSMA6 Q9QUM9 103-117, SEQ ID NO 89; probe 100 μM, 12 replicates
# T3 construct: endogenous in cells; host or cells: Neuro2a
# [4] = target: T4, AEA-DA-modified peptides in Neuro2a cells (Mus musculus, UniProt Q9Z0V8); settings: probe 100 μM, 12 replicates
# T4 construct: endogenous in cells; host or cells: Neuro2a
# [5] = target: T5, AEA-DA-modified peptides in Neuro2a cells (Mus musculus, UniProt Q8BMG8); settings: AEA-DA-modified peptide SLC25A32 Q8BMG8 115-146, SEQ ID NO 104; probe 100 μM, 12 replicates
# T5 construct: endogenous in cells; host or cells: Neuro2a
# [6] = target: T6, AEA-DA-modified peptides in Neuro2a cells (Mus musculus, UniProt Q8R0X7); settings: probe 100 μM, 12 replicates
# T6 construct: endogenous in cells; host or cells: Neuro2a
# [7] = target: T7, AEA-DA-modified peptides in Neuro2a cells (Mus musculus, UniProt P08113); settings: AEA-DA-modified peptide HSP90B1 P08113 664-672, SEQ ID NO 51; probe 100 μM, 12 replicates
# T7 construct: endogenous in cells; host or cells: Neuro2a
# [8] = target: T8, AEA-DA-modified peptides in Neuro2a cells (Mus musculus, UniProt P18242); settings: AEA-DA-modified peptide CTSD P18242 312-330, SEQ ID NO 27; probe 100 μM, 12 replicates
# T8 construct: endogenous in cells; host or cells: Neuro2a
# [9] = target: T9, AEA-DA-modified peptides in Neuro2a cells (Mus musculus, UniProt Q9JKW0); settings: AEA-DA-modified peptide ARL6IP1 Q9JKW0 8-36, SEQ ID NO 15; probe 100 μM, 12 replicates
# T9 construct: endogenous in cells; host or cells: Neuro2a
# [10] = target: T10, AEA-DA-modified peptides in Neuro2a cells (Mus musculus, UniProt P53811); settings: AEA-DA-modified peptide PITPNB P53811 32-45, SEQ ID NO 86; probe 100 μM, 12 replicates
# T10 construct: endogenous in cells; host or cells: Neuro2a
# [11] = target: T11, AEA-DA-modified peptides in Neuro2a cells (Mus musculus, UniProt O08579); settings: AEA-DA-modified peptide EMD O08579 176-205, SEQ ID NO 37; probe 100 μM, 12 replicates
# T11 construct: endogenous in cells; host or cells: Neuro2a
# T11 sequence (O08579 whole entry): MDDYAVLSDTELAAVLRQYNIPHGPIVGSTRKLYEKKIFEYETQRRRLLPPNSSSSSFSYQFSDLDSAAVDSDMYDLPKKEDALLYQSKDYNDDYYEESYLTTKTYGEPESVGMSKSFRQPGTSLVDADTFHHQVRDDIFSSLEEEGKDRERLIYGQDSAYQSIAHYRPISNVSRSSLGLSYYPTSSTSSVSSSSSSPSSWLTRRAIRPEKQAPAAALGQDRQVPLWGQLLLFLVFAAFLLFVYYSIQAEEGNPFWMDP
# T4 sequence (Q9Z0V8 whole entry): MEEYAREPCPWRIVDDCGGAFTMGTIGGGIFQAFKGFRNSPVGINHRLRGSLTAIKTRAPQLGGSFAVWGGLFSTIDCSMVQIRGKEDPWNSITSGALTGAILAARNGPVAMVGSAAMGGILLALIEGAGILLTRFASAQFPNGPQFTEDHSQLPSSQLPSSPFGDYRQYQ
# T6 sequence (Q8R0X7 whole entry): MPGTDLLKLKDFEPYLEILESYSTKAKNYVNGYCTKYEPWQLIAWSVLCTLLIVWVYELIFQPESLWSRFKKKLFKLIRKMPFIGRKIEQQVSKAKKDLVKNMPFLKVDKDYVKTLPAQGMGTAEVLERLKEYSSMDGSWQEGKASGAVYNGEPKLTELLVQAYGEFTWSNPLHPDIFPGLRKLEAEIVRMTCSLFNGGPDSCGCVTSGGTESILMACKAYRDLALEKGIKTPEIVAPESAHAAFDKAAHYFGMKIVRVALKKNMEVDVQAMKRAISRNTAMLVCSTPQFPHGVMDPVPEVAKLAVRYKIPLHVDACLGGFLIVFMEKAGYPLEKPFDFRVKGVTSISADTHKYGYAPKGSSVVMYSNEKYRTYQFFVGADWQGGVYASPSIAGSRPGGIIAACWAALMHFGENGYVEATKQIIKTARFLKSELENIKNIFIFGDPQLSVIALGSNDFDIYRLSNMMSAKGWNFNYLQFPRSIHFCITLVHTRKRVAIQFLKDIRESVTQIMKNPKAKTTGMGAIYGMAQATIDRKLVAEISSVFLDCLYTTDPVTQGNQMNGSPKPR
# T1 sequence (Q80UU9 whole entry): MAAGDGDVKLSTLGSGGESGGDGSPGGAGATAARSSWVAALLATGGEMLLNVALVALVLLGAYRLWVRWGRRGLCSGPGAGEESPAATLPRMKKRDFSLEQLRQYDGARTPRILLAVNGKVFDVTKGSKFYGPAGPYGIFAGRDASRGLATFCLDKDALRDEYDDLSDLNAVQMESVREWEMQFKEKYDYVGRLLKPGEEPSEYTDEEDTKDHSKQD
# T2 sequence (Q99JY4 whole entry): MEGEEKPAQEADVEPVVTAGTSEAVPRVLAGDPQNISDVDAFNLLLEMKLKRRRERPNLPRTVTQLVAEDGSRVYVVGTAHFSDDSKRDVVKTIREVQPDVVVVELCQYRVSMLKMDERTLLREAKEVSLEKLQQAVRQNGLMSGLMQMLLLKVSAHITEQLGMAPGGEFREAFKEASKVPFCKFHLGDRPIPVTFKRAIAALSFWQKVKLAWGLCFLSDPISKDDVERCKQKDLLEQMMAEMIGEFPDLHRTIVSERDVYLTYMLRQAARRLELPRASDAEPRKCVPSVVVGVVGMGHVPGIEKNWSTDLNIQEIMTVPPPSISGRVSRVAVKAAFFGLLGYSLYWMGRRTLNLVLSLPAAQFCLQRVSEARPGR
# T8 sequence (P18242 65-410): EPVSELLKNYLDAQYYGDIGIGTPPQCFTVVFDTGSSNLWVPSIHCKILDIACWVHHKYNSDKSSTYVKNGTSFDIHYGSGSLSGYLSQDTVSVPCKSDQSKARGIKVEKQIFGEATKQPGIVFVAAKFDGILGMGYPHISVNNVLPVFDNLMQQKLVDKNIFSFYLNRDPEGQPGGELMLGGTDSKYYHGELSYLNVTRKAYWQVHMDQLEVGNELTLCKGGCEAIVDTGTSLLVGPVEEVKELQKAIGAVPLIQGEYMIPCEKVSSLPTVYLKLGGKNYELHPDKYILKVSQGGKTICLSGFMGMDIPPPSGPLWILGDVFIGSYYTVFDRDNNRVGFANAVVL
# T9 sequence (Q9JKW0 whole entry): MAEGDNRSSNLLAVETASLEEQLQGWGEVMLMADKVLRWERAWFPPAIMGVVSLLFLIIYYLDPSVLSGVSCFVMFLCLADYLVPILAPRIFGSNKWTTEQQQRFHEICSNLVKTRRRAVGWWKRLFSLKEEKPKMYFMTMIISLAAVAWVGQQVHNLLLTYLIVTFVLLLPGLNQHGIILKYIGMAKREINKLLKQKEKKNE
# T5 sequence (Q8BMG8 whole entry): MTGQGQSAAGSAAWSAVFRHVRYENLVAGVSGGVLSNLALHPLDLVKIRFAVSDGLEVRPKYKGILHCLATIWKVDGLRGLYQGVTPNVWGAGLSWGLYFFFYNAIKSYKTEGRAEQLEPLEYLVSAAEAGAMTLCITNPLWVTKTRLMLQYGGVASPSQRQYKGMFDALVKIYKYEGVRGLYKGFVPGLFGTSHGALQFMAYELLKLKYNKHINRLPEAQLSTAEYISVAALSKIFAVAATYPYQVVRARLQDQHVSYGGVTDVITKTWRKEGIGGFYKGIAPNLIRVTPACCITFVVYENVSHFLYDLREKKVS
# T10 sequence (P53811 whole entry): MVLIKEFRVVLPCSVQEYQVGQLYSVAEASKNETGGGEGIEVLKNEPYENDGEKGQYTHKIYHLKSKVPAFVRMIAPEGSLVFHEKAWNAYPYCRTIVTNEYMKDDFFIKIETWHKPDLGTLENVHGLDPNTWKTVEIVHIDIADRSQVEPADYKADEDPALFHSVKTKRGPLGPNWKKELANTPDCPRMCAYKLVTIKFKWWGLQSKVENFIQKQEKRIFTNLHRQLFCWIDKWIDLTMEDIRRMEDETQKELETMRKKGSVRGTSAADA
# T3 sequence (Q9QUM9 whole entry): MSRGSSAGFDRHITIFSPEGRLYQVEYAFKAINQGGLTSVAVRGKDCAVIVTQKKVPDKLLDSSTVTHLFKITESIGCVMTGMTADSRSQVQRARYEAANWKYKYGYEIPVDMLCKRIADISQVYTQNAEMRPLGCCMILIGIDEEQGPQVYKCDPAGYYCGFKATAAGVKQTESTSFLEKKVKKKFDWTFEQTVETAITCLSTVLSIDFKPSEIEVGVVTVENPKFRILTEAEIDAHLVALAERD
# T7 sequence (P08113 22-802): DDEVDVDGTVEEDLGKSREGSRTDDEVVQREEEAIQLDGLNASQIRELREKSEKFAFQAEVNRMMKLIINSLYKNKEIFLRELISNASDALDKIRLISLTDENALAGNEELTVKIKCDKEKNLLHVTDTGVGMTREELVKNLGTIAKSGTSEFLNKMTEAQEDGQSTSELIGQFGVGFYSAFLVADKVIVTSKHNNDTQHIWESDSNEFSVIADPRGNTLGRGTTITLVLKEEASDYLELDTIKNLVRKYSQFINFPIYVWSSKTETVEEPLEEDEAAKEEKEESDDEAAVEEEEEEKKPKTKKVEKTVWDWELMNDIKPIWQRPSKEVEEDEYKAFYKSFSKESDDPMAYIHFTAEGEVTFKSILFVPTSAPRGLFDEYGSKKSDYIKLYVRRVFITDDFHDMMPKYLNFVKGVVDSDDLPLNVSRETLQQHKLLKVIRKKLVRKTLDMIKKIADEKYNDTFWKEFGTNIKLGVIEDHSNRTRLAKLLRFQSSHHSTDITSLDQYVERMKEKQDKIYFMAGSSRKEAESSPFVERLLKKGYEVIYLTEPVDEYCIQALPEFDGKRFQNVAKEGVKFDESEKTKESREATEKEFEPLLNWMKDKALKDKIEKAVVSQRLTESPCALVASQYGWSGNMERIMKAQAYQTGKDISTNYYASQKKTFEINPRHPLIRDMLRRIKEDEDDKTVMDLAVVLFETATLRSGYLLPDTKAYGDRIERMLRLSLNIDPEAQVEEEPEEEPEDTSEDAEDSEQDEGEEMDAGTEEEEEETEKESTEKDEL
structure (smiles),measurement,setting,value
"C#CCCCC1(CC/C=C\C/C=C\C/C=C\CCCC(=O)NCCO)N=N1 [AEA-DA, (5Z,8Z,11Z)-N-(2-hydroxyethyl)-14-(3-(pent-4-yn-1-yl)-3H-diazirin-3-yl)tetradeca-5,8,11-trienamide]",Times observed,"[1]; AEA-DA-modified peptide PGRMC2 Q80UU9 74-92, SEQ ID NO 84",2
same,Times observed,"[1]; AEA-DA-modified peptide PGRMC2 Q80UU9 130-144, SEQ ID NO 83",9
same,Times observed,[2],4
same,Times observed,[3],8
same,Times observed,"[4]; AEA-DA-modified peptide TIMM17A Q9Z0V8 13-36, SEQ ID NO 111",9
same,Times observed,"[4]; AEA-DA-modified peptide TIMM17A Q9Z0V8 85-107, SEQ ID NO 112",4
same,Times observed,[5],6
same,Times observed,"[6]; AEA-DA-modified peptide SGPL1 Q8R0X7 9-26, SEQ ID NO 100",4
same,Times observed,"[6]; AEA-DA-modified peptide SGPL1 Q8R0X7 519-536, SEQ ID NO 99",12
same,Times observed,[7],4
same,Times observed,[8],12
same,Times observed,[9],2
same,Times observed,[10],4
same,Times observed,[11],2
